The text below walks through data of patent US20180073018A1, “COMPOSITIONS AND METHODS FOR SPECIFIC REACTIVATION OF HIV LATENT RESERVOIR” (priority 2015, published 2018).

For the series, the system named is TZM-bI cells. Description: CellTiter-Glo luminescent cell viability assay in TZM-bI cells. It counts as cell-based. The note with it: TZM-bI, 5,000 nM. Here is the method: FIG. 10A, FIG. 10B: TZM-bI cells were infected with indicated lentiviruses for 1 d and triple antibiotic selection with puromycin/hygromycin/zeoin (P/H/Z) was maintained for 4 d before passage, OneGlo luciferase reporter assay (FIG. 10A) and CellTiter-Glo® luminescent cell viability assay (FIG. 10B). FIG. 10C, FIG. 10D: CHME5 cells were infected with indicated lentiviruses and cultured for 5 d in the absence or presence of P/H/Z triple selection. Flow cytometry analysis was performed for reactivation efficiency (FIG. 10C) and total survival cell number (FIG. 10D). FIG. 10E: Caspase-Glo® 3/7 Assay was performed at 2 dpi to evaluate apoptotic cell death. […] FIG. 10F, FIG. 10G: The 2D10 cells were infected for 1 and 4 dpi, and the reactivation efficiency (FIG. 10F) and relative total survival cell number (FIG. 10G) were determined by flow cytometry. *p<0.05 and **p<0.01 indicate statistical significance by ANOVA and FLSD test.
FIG. 12A, FIG. 12B, FIG. 12C: The dCas9-VPH stable TZM-bI cells were treated with SAHA or infected with indicated msgRNAs lentivirus for 2-4 d before luminescence reporter assay (FIG. 12A) and CELLTITER-GLO® luminescent cell viability assay (FIG. 12B). […]
The cell growth/proliferation was determined by the trypan blue exclusion hemocytometry, and CELLTITER-GLO luminescence viability assay (Promega). […]
(In ATP-based viability assays light output follows the ATP content of the culture.)

Regarding `O=C(CCCCCCC(=O)Nc1ccccc1)NO` [SAHA, suberoylanilide hydroxamic acid], the cell viability result was “killed all the cells”.
